Results as given in patent US20240336697A1, “METHODS OF USING ANTI-CD79B IMMUNOCONJUGATES TO TREAT DIFFUSE LARGE B-CELL LYMPHOMA” (Genentech, Inc., priority 2021, published 2024).
Where a SMILES comes first, the peptide text is derived from it. [ ]: non-standard residue; d: D form. The star is where a group is joined. Dolaproine = CO[C@@H]([C@@H]1CCCN1)[C@@H](C)C(=O)O; Dil = CC[C@H](C)[C@H](NC)[C@@H](CC(=O)O)OC; X1 = C[C@@H](N*)[C@@H](O)c1ccccc1; NMeV = CN[C@H](C(=O)O)C(C)C

Tests used:
CYP3A4 = CYP3A4 (Homo sapiens, UniProt P08684); assay: In vitro metabolism of unconjugated MMAE; assay type: in vitro ADME; settings: in vitro data
Text: (§1) Based on a validated physiological-based PK model simulation, strong CYP3A4 inhibitors may increase the exposure (e.g., area under the concentration-time curve) of unconjugated MMAE by ˜50% while acMMAE PK is not affected. Concomitant medications that are strong CYP3A4 inhibitors are considered cautionary as they may potentially lead to adverse reactions, which require close monitoring. […] Concomitant medications that are P-gp inhibitors are considered cautionary as they may potentially lead to adverse reactions, which require close monitoring.

P-glycoprotein (P-gp) = P-glycoprotein (P-gp) (Homo sapiens, UniProt P08183); assay: P-glycoprotein substrate / inhibitor status; assay type: in vitro ADME
Text: as §1

CYP3A4, sequence (P08684 whole entry): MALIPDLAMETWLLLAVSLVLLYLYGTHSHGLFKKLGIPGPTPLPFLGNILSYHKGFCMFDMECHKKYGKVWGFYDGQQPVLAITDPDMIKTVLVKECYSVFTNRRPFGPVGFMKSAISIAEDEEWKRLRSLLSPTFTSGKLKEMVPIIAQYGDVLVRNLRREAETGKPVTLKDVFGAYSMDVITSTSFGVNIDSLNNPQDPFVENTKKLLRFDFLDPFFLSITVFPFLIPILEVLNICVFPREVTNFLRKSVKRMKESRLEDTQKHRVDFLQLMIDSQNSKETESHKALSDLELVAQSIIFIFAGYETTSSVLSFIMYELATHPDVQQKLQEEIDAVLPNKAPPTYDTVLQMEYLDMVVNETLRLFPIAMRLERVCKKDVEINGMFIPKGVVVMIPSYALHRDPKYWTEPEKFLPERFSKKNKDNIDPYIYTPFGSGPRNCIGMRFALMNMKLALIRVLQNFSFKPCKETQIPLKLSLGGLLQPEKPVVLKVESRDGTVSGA
P-glycoprotein (P-gp), sequence (P08183 whole entry): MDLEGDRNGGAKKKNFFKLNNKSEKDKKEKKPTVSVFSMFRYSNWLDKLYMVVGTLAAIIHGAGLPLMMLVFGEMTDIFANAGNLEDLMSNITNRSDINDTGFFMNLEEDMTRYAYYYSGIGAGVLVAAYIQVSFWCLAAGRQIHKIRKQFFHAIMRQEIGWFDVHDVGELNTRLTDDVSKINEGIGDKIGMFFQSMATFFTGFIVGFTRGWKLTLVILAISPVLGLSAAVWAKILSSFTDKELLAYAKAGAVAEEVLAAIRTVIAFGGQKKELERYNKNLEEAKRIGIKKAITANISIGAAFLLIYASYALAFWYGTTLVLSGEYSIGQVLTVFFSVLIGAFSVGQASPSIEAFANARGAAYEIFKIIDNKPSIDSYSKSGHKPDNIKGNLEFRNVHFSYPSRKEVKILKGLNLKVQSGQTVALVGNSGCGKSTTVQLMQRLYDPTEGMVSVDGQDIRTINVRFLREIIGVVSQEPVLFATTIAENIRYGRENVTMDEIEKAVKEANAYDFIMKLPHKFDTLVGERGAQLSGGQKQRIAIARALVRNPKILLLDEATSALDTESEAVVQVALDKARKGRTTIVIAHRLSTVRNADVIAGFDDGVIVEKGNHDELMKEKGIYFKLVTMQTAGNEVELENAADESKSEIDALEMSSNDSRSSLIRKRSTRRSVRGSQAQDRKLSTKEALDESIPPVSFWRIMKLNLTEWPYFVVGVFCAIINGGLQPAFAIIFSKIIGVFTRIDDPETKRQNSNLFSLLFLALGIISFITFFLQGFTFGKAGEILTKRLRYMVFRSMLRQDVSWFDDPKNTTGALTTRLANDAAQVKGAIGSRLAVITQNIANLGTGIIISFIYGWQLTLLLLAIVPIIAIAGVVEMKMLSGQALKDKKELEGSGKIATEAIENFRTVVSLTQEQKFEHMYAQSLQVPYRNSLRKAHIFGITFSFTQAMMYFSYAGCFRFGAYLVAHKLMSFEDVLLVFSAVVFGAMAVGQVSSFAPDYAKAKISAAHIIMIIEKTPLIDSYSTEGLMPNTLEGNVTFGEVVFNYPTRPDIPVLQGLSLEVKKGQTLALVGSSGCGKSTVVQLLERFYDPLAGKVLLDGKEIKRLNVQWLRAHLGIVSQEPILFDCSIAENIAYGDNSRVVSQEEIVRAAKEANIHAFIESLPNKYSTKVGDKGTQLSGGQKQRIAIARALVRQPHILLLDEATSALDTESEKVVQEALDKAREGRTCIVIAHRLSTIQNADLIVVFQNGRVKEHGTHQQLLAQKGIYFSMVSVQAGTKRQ

With `CC[C@H](C)[C@@H]([C@@H](CC(=O)N1CCC[C@H]1[C@H](OC)[C@@H](C)C(=O)N[C@H](C)[C@@H](O)c1ccccc1)OC)N(C)C(=O)[C@@H](NC(=O)[C@@H](NC)C(C)C)C(C)C` [MMAE, monomethylauristatin E] (H-[NMeV]V[Dil][Dolaproine]-X1) as the molecule, how does the “metabolism of unconjugated MMAE by CYP3A4” value (CYP3A4) read?
The value was “mainly metabolized by CYP3A4”.

What about the P-gp inhibitor (P-glycoprotein (P-gp)) of the same molecule?
Its P-gp inhibitor is “not a P-gp inhibitor”.
